Values quoted from earlier work in patent US6552066B1, “Protein tyrosine kinase inhibitors for treating osteoarthritis” (priority 1995, dated 2003).

Assays:
[1] = test system: progression of osteoarthritis; details: animals; cited from earlier work
bovine cartilage explant = details: cited from earlier work

Structure (SMILES): NC1=N/C(=C2/CCNC(=O)c3[nH]ccc32)C(=O)N1 [Z-debromohymenialdisine]
- progression of osteoarthritis [1]: slows the progression of osteoarthritis
- inhibition of cartilage degradation in the bovine cartilage explant assay (bovine cartilage explant): inhibit cartilage degradation
